In paper PMC2559975 (Journal of medicinal chemistry, 2008):
Like-named read-outs stand apart in the source and are kept apart here.

Legend:
[1] = system: CCRF-CEM human leukemia cell line; assay: In vitro cytotoxic activity; assay type: cell-based; conditions: for Times less potent than 2 in the CCRF-CEM assay: relative to 2
[2] = target: T1, rhGAR Tfase (Homo sapiens, UniProt P22102); assay: GAR Tfase enzyme inhibition assay; assay type: biochemical
T1 sequence (P22102 808-1010 limits assumed): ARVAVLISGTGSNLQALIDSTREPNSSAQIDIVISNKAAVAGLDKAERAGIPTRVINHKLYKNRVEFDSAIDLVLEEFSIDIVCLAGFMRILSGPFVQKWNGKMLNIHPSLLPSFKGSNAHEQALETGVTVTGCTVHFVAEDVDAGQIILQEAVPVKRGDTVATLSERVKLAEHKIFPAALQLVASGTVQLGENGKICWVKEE

[3] = system: CCRF-CEM human leukemia cell line; conditions: read-out: IC50, CCRF-CEM; equi-mixture of C10-diastereomers; cited from earlier work
[4] = system: CCRF-CEM/FPGS^-; assay type: cell-based, human; conditions: relative to CCRF-CEM
[5] = Homo sapiens, CCRF-CEM, read-out: IC50 [(-)T, (-)H] CCRF-CEM

CS[C@H](CCCc1c(N)nc(N)[nH]c1=O)c1ccc(C(=O)N[C@@H](CCC(=O)O)C(=O)O)cc1 [Compound 10R-3, (S)-2-(4-((R)-4-(2,4-Diamino-6-oxo-1,6-dihydropyrimidin-5-yl)-1-(methylthio)butyl)benzamido)pentanedioic Acid]
IC50 [1, 5]: 90 nM
Times less potent than 2 in the CCRF-CEM assay [1]: 3-5 times

10-hydroxy-DDACTHF [Compound 10R-7]
IC50 ([1]; read-out: CCRF-CEM IC50, (+) T, (-) H, Table 2, thymidine added, no hypoxanthine): 5700 nM
IC50 ([1]; read-out: CCRF-CEM IC50, (-) T, (+) H, Table 2, hypoxanthine added, no thymidine): > 10000 nM

CO[C@@H](CCCc1c(N)nc(N)[nH]c1=O)c1ccc(C(=O)N[C@@H](CCC(=O)O)C(=O)O)cc1 [Compound 10S-8, (S)-2-(4-((S)-4-(2,4-Diamino-6-oxo-1,6-dihydropyrimidin-5-yl)-1-methoxybutyl)benzamido)pentanedioic Acid]
IC50 [1, 5]: 800 nM

Nc1nc(N)c(CCCC(C(=O)C(F)(F)F)c2ccc(C(=O)N[C@@H](CCC(=O)O)C(=O)O)cc2)c(=O)[nH]1 (some centres unmarked) [Compound 2, 10-CF3CO-DDACTHF, reference compound]
IC50 [1, 5]: 60 nM

Nc1nc(N)c(CCC[C@H](O)c2ccc(C(=O)N[C@@H](CCC(=O)O)C(=O)O)cc2)c(=O)[nH]1 [Compound 10S-7, (S)-2-(4-((S)-4-(2,4-Diamino-6-oxo-1,6-dihydropyrimidin-5-yl)-1-hydroxybutyl)benzamido)pentanedioic Acid]
Ki [2]: 1210 nM

CSC(CCCc1c(N)nc(N)[nH]c1=O)c1ccc(C(=O)N[C@@H](CCC(=O)O)C(=O)O)cc1 (some centres unmarked) [Compound 3, 10-methylthio-DDACTHF]
IC50 [3]: 100 nM
Loss of activity against the cell line that lacks FPGS [4]: ca. 100 fold

CS[C@@H](CCCc1c(N)nc(N)[nH]c1=O)c1ccc(C(=O)N[C@@H](CCC(=O)O)C(=O)O)cc1 [Compound 10S-3, 10-methylthio-DDACTHF]
Times less potent than 2 in the CCRF-CEM assay [1]: 3-5 times

Nc1nc(N)c(CCCC2(c3ccc(C(=O)N[C@@H](CCC(=O)O)C(=O)O)cc3)SCCCS2)c(=O)[nH]1 [Compound 9, (S)-2-(4-(2-(3-(2,4-Diamino-6-oxo-1,6-dihydropyrimidin-5-yl)propyl)-1,3-dithian-2-yl)benzamido)pentanedioic Acid]
Activity in the CCRF-CEM cell-based assay (in words) [1]: no activity
